# Target: T1, human GHSR1a (Homo sapiens, UniProt Q92847)
# T1 construct: expressed in transfected cells; host or cells: HEK293 Tetracycline-Inducible cell line, used as membranes
# Assay: Human Ghrelin SPA Binding Assay
# From the text: The SPA format was utilized for high throughput screening of test compounds and filter binding served for more comprehensive binding characterization.
# Human Ghrelin SPA Binding Assay
# T1 sequence (Q92847 whole entry): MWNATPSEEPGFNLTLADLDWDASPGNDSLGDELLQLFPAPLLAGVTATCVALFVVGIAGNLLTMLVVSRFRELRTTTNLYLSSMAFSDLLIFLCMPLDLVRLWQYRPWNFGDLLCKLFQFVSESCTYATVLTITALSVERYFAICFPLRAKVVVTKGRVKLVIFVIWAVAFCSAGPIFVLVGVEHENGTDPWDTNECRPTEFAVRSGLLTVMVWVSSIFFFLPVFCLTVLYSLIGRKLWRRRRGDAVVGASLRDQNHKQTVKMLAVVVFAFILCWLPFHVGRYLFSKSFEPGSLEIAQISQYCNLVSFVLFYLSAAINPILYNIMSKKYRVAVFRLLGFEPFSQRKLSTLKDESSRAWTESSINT
SMILES,IC50 [nM],Ki [nM]
Cc1cc(CC(=O)N2CCC3(CC2)CN([C@@H]2CCc4cc(-c5ncccn5)ccc42)C3)[nH]n1 [Example 3AX],801,691
Cc1nn2cc(CC(=O)N3CCC4(CC3)CN([C@@H]3CCc5cc(-c6ncccn6)ccc53)C4)nc2s1 [Example 3O],30.2,28.1
O=C(Cc1cn2ccccc2n1)N1CCC2(CC1)CN([C@@H]1CCc3cc(-c4ncccn4)ccc31)C2 [Example 3Q],26.6,23
O=C(Cc1ccc2c(n1)OCCO2)N1CCC2(CC1)CN([C@@H]1CCc3cc(-c4ncccn4)ccc31)C2 [Example 3R],25.5,22.2
Cc1ccc(CC(=O)N2CCC3(CC2)CN([C@@H]2CCc4cc(-c5nccc(C)n5)ccc42)C3)nc1 [Example 3T],82.4,73
COc1ccc(CC(=O)N2CCC3(CC2)CN([C@@H]2CCc4cc(-c5cc(OC)ncn5)ccc42)C3)nc1 [Example 3V],20.7,17.4
Cc1ccnc(-c2ccc3c(c2)CC[C@H]3N2CC3(CCN(C(=O)Cc4cn5nc(C)sc5n4)CC3)C2)n1 [Example 3Y],30.7,25.9
"COc1ccc(CC(=O)N2CCC3(CC2)CN([C@@H]2CCc4cc(-c5ccc(C#N)nc5)ccc42)C3)nc1 [Example 4B, 5-[(1R)-1-{7-[(5-methoxypyridin-2-yl)acetyl]-2,7-diazaspiro[3.5]non-2-yl}-2,3-dihydro-1H-inden-5-yl]pyridine-2-carbonitrile]",70.5,60.7
CCc1ccc(CC(=O)N2CCC3(CC2)CN([C@@H]2CCc4cc(-c5ccc(C(N)=O)cc5)ccc42)C3)nc1 [Example 4C],49.3,43.3
COc1ccc(CC(=O)N2CCC3(CC2)CN([C@@H]2CCc4cc(-c5ccc(C(N)=O)cc5)ccc42)C3)nc1 [Example 4D],20.1,17.5

# More lines, now with the values ahead:
IC50 [nM],Ki [nM],SMILES
143,122,CCn1ccc(CC(=O)N2CCC3(CC2)CN([C@@H]2CCc4cc(-c5ncccn5)ccc42)C3)n1 [Example 3AS]
229,198,O=C(Cc1cn(-c2ccccc2)cn1)N1CCC2(CC1)CN([C@@H]1CCc3cc(-c4ncccn4)ccc31)C2 [Example 3AV]
949,785,O=C(Cc1ccc(C(F)F)cn1)N1CCC2(CC1)CN([C@@H]1CCc3cc(-c4ncccn4)ccc31)C2 [Example 3AW]
495,440,Cc1cc(-c2ccc3c(c2)CC[C@H]3N2CC3(CCN(C(=O)Cc4cn5nccnc5n4)CC3)C2)ncn1 [Example 3AY]
17.4,15.4,N#Cc1cc(-c2ccc3c(c2)CC[C@H]3N2CC3(CCN(C(=O)Cc4ccc(C5CC5)cn4)CC3)C2)ncn1 [Example 3AZ]
52.9,46.5,Cc1ccc(CC(=O)N2CCC3(CC2)CN([C@@H]2CCc4cc(-c5ccn(C)n5)ccc42)C3)nc1 [Example 3J]
99.5,87.1,COc1ccc(CC(=O)N2CCC3(CC2)CN([C@@H]2CCc4cc(-c5ccnc(C)n5)ccc42)C3)nc1 [Example 3K]
36.3,31.7,COc1ccc(NC(C)=O)c(CC(=O)N2CCC3(CC2)CN([C@@H]2CCc4cc(-c5ncccn5)ccc42)C3)c1 [Example 3P]
9.29,8.02,"Cc1ccn2cc(CC(=O)N3CCC4(CC3)CN([C@@H]3CCc5cc(-c6ccc(C(N)=O)cc6)ccc53)C4)nc2c1 [Example 4A, 4-[(1R)-1-{7-[(7-methylimidazo[1,2-a]pyridin-2-yl)acetyl]-2,7-diazaspiro[3.5]non-2-yl}-2,3-dihydro-1H-inden-5-yl]benzamide]"
42.6,36.8,NC(=O)c1ccc(-c2ccc3c(c2)CC[C@H]3N2CC3(CCN(C(=O)Cc4cn5ccccc5n4)CC3)C2)cc1 [Example 4E]
